Source: patent US20150105252A1, “SUBSTITUTED PYRAZOLES AS HERBICIDES” (E I DU PONT DE NEMOURS AND COMPANY, priority 2013, published 2015)

Columns and labels:
Assay in all cases: Test C postemergence
[1] = tested on: oat, wild; format: in vivo, Avena fatua
Procedure, shortened: (§1)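 Visual rating, 0–100 scale (0 no effect, 100 complete control), vs untreated controls after 13–15 d greenhouse. Pre: seeds in loam/sand, treated at sowing. Post: plants in peat-based mix, 1- to 4-leaf (2–18 cm). Solvent + surfactant formulation, non-phytotoxic.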

[2] = tested on: soybean; format: in vivo, Glycine max
Procedure, shortened: as §1

[3] = tested on: chickweed; format: in vivo, Stellaria media
Procedure, shortened: as §1

[4] = tested on: blackgrass; format: in vivo, Alopecurus myosuroides
Procedure, shortened: as §1

[5] = tested on: morningglory; format: in vivo, Ipomoea coccinea
Procedure, shortened: as §1

[6] = tested on: lambsquarters; format: in vivo, Chenopodium album
Procedure, shortened: as §1

[7] = tested on: nutsedge, yellow; format: in vivo, Cyperus esculentus
Procedure, shortened: as §1

[8] = tested on: ryegrass, Italian; format: in vivo, Lolium multiflorum
Procedure, shortened: as §1

[9] = tested on: oilseed rape; format: in vivo, Brassica napus
Procedure, shortened: as §1

[10] = tested on: ragweed; format: in vivo, Ambrosia elation
Procedure, shortened: as §1

[11] = tested on: kochia; format: in vivo, Kochia scoparia
Procedure, shortened: as §1

[12] = tested on: waterhemp; format: in vivo, Amaranthus rudis
Procedure, shortened: as §1

[13] = tested on: johnsongrass; format: in vivo, Sorghum halepense
Procedure, shortened: as §1

[14] = tested on: foxtail, giant; format: in vivo, Setaria faberii
Procedure, shortened: as §1

[15] = tested on: barnyardgrass; format: in vivo, Echinochloa crus-galli
Procedure, shortened: as §1

[16] = tested on: wheat; format: in vivo, Triticum aestivum
Procedure, shortened: as §1

[17] = tested on: pigweed; format: in vivo, Amaranthus retroflexus
Procedure, shortened: as §1

[18] = Postemergence, 31 g ai/ha, visually evaluated after 13 to 15 days
[19] = postemergence, 62 g ai/ha, scale 0 to 100
[20] = postemergence, 250 g ai/ha, scale 0 to 100 (0 no effect, 100 complete control)
[21] = postemergence, 125 g ai/ha, scale 0 to 100, 0 no effect, 100 complete control

CCOc1cc(C(=O)NC2CC2)nn1Cc1ccnc(OC(F)F)c1 [Compound 133]
Plant response rating (scale of 0 to 100 where 0 is no effect and 100 is complete control), Oat, Wild [1, 18]: 5 | Oat, Wild plant response rating [1, 19]: 5 | Plant response rating, Oat, Wild [1, 20]: 35 | Plant response rating, Oat, Wild [1, 21]: 15 | Plant response rating (scale of 0 to 100 where 0 is no effect and 100 is complete control), Soybean [2, 18]: 85 | Soybean plant response rating [2, 19]: 75 | Plant response rating, Soybean [2, 20]: 95 | Plant response rating, Soybean [2, 21]: 95 | Plant response rating (scale of 0 to 100 where 0 is no effect and 100 is complete control), Chickweed [3, 18]: 50 | Chickweed plant response rating [3, 19]: 60 | Plant response rating, Chickweed [3, 20]: 85 | Plant response rating, Chickweed [3, 21]: 70 | Plant response rating (scale of 0 to 100 where 0 is no effect and 100 is complete control), Blackgrass [4, 18]: 5 | Blackgrass plant response rating [4, 19]: 5 | Plant response rating, Blackgrass [4, 20]: 10 | Plant response rating, Blackgrass [4, 21]: 10 | Plant response rating (scale of 0 to 100 where 0 is no effect and 100 is complete control), Morningglory [5, 18]: 75 | Morningglory plant response rating [5, 19]: 90 | Plant response rating, Morningglory [5, 20]: 100 | Plant response rating, Morningglory [5, 21]: 90 | Plant response rating (scale of 0 to 100 where 0 is no effect and 100 is complete control), Lambsquarters [6, 18]: 50 | Lambsquarters plant response rating [6, 19]: 55 | Plant response rating, Lambsquarters [6, 20]: 90 | Plant response rating, Lambsquarters [6, 21]: 90 | Plant response rating (scale of 0 to 100 where 0 is no effect and 100 is complete control), Nutsedge, Yellow [7, 18]: 5 | Nutsedge, Yellow plant response rating [7, 19]: 5 | Plant response rating, Nutsedge, Yellow [7, 20]: 15 | Plant response rating, Nutsedge, Yellow [7, 21]: 5 | Plant response rating (scale of 0 to 100 where 0 is no effect and 100 is complete control), Ryegrass, Italian [8, 18]: 5 | Ryegrass, Italian plant response rating [8, 19]: 5 | Plant response rating, Ryegrass, Italian [8, 20]: 10 | Plant response rating, Ryegrass, Italian [8, 21]: 5 | Plant response rating (scale of 0 to 100 where 0 is no effect and 100 is complete control), Oilseed Rape [9, 18]: 50 | Oilseed Rape plant response rating [9, 19]: 60 | Plant response rating, Oilseed Rape [9, 20]: 85 | Plant response rating, Oilseed Rape [9, 21]: 75 | Plant response rating (scale of 0 to 100 where 0 is no effect and 100 is complete control), Ragweed [10, 18]: 25 | Ragweed plant response rating [10, 19]: 25 | Plant response rating, Ragweed [10, 20]: 85 | Plant response rating, Ragweed [10, 21]: 75 | Plant response rating (scale of 0 to 100 where 0 is no effect and 100 is complete control), Kochia [11, 18]: 85 | Kochia plant response rating [11, 19]: 90 | Plant response rating, Kochia [11, 20]: 90 | Plant response rating, Kochia [11, 21]: 90 | Plant response rating (scale of 0 to 100 where 0 is no effect and 100 is complete control), Waterhemp [12, 18]: 60 | Waterhemp plant response rating [12, 19]: 60 | Plant response rating, Waterhemp [12, 20]: 95 | Plant response rating, Waterhemp [12, 21]: 75 | Plant response rating (scale of 0 to 100 where 0 is no effect and 100 is complete control), Johnsongrass [13, 18]: 5 | Johnsongrass plant response rating [13, 19]: 5 | Plant response rating, Johnsongrass [13, 20]: 5 | Plant response rating, Johnsongrass [13, 21]: 5 | Plant response rating (scale of 0 to 100 where 0 is no effect and 100 is complete control), Foxtail, Giant [14, 18]: 35 | Foxtail, Giant plant response rating [14, 19]: 40 | Plant response rating, Foxtail, Giant [14, 20]: 80 | Plant response rating, Foxtail, Giant [14, 21]: 50 | Plant response rating (scale of 0 to 100 where 0 is no effect and 100 is complete control), Barnyardgrass [15, 18]: 5 | Barnyardgrass plant response rating [15, 19]: 5 | Plant response rating, Barnyardgrass [15, 20]: 15 | Plant response rating, Barnyardgrass [15, 21]: 5 | Plant response rating (scale of 0 to 100 where 0 is no effect and 100 is complete control), Wheat [16, 18]: 5 | Wheat plant response rating [16, 19]: 5 | Plant response rating, Wheat [16, 20]: 30 | Plant response rating, Wheat [16, 21]: 15 | Plant response rating (scale of 0 to 100 where 0 is no effect and 100 is complete control), Pigweed [17, 18]: 50 | Pigweed plant response rating [17, 19]: 60 | Plant response rating, Pigweed [17, 20]: 90 | Plant response rating, Pigweed [17, 21]: 80
